In the supplement of paper PMC10307832:

Assays:
Assay in all cases: relative viability (nuclei count vs DMSO), 5 days (fraction); higher = more cells survive
Tanzisertib + AZD7762 = compound: O[C@H]1CC[C@H](Nc2ncc3nc(Nc4c(F)cc(F)cc4F)n([C@H]4CCOC4)c3n2)CC1 [Tanzisertib] + NC(=O)Nc1cc(-c2cccc(F)c2)sc1C(=O)N[C@H]1CCCNC1 [AZD7762] (partner 0.2 µM)
Outline: (§1)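 After 5 days of treatment, lung cancer cells in 1536-well plates were fixed and stained in a single step (final 0.05% Triton X-100, 1% formaldehyde, 1 ug/ml Hoechst) and their nuclei counted on 4× images. Treatment had been applied by pin tool the day after seeding as one drug alone or as a fixed anchor-drug dose with five library-drug doses (not always all listed) in √10 steps. Relative viability is the nuclei count of treated wells divided by that of vehicle wells, and values are medians of duplicate plates.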

[1] = compound: C[C@@H](N)c1ccc(C(=O)Nc2ccnc3[nH]ccc23)cc1 + CC(=O)Nc1cccc(-n2c(=O)n(C3CC3)c(=O)c3c(Nc4ccc(I)cc4F)n(C)c(=O)c(C)c32)c1 [Trametinib] (partner 0.02 µM)
Outline: as §1

[2] = compound: C1CNCCC1C2=CC(=NN2)C3=CC=NC=C3 + CC(=O)Nc1cccc(-n2c(=O)n(C3CC3)c(=O)c3c(Nc4ccc(I)cc4F)n(C)c(=O)c(C)c32)c1 [Trametinib] (partner 0.02 µM)
Outline: as §1

Tanzisertib + Olaparib = compound: O[C@H]1CC[C@H](Nc2ncc3nc(Nc4c(F)cc(F)cc4F)n([C@H]4CCOC4)c3n2)CC1 [Tanzisertib] + O=C(c1cc(Cc2n[nH]c(=O)c3ccccc23)ccc1F)N1CCN(C(=O)C2CC2)CC1 [Olaparib] (partner 8 µM)
Outline: as §1

Cell Line	relative viability (Tanzisertib + AZD7762; first compound 0.08 µM)	relative viability (Tanzisertib + AZD7762; first compound 0.253 µM)	relative viability (Tanzisertib + AZD7762; first compound 0.8 µM)	relative viability (Tanzisertib + AZD7762; first compound 2.53 µM)	relative viability (Tanzisertib + AZD7762; first compound 8 µM)	relative viability ([1]; first compound 0.04 µM)	relative viability ([1]; first compound 0.1265 µM)	relative viability ([1]; first compound 0.4 µM)	relative viability ([1]; first compound 4 µM)	relative viability ([2]; first compound 0.08 µM)	relative viability ([2]; first compound 2.53 µM)	relative viability ([2]; first compound 8 µM)	relative viability (Tanzisertib + Olaparib; first compound 0.08 µM)	relative viability (Tanzisertib + Olaparib; first compound 0.253 µM)	relative viability (Tanzisertib + Olaparib; first compound 0.8 µM)	relative viability (Tanzisertib + Olaparib; first compound 2.53 µM)	relative viability (Tanzisertib + Olaparib; first compound 8 µM)	relative viability ([1]; first compound 1.265 µM)	relative viability ([2]; first compound 0.8 µM)
NCI-H23	0.224	0.245	0.236	0.317	0.214	0.422	0.427	0.386	0.483	0.372	0.444	0.371	0.316	0.341	0.36	0.301	0.314		
NCI-H322M	0.567	0.547	0.547	0.527	0.492	0.625	0.61	0.701	0.684	0.511	0.516	0.575	0.805	0.836	0.762	0.89	0.726	0.617	0.533
NCI-H358	0.468	0.494	0.695	0.453	0.387	0.157	0.133	0.138	0.139	0.12	0.136	0.169	0.623	0.547	0.586	0.583	0.492	0.121	0.128
NCI-H441	1.21	0.989	1.07	1.11	1.08	0.522	0.61	0.478	0.405	0.425	0.555	0.461	0.642	0.611	0.545	0.496	0.535	0.38	0.469
NCI-H460	0.661	0.627	0.591	0.63	0.628	0.217	0.165	0.243	0.178	0.0741	0.158	0.188	0.487	0.445	0.417	0.442	0.503	0.0564	0.122
NCI-H522	1.1	0.891	0.839	0.955	0.886	0.798	0.789	0.66	0.745	0.764	0.918	0.744	0.629	0.809	0.726	0.647	0.634	1.02	0.716
NCI-H596	1.04	1.04	1.12	0.995	1.04	0.922	0.826	0.906	0.759	0.777	0.819	0.834	0.758	0.657	0.622	0.625	0.697	0.752	0.808
NCI-H647	0.675	0.549	0.546	0.534	0.18	0.387	0.47	0.46	0.385	0.491	0.535	0.525	0.875	0.487	0.505	0.657	0.65	0.424	0.379
NCI-H650	1.03	1.32	1.01	1.3	0.489		0.959	0.968	1.03	0.825	1.1	1.02	0.373	0.391	0.359	0.426	0.391		1.14
NCI-H727	0.59	0.652	0.524	0.544	0.599	0.41	0.432	0.404	0.467	0.386	0.421	0.364	0.69	0.678	0.553	0.734	0.686	0.466	0.366
NCI-H838	0.964	0.962	0.889	0.909	0.972	0.261	0.512	0.45	0.192	0.518	0.589	0.512	0.823	0.756	0.741	0.725	0.788	0.289	0.494
NCI-H1355	0.847	0.822	0.813	0.71	0.708	0.482	0.427	0.446	0.393	0.419	0.466	0.406	0.772	0.735	0.756	0.757	0.796	0.433	0.442
NCI-H1395	0.439	0.399	0.382	0.394	0.425	1.04	0.996	1.03	0.912	0.905	0.966	1.16	0.462	0.445	0.455	0.42	0.45		0.992
NCI-H1437	1.15	1.15	1.12	1.12	1.12	0.647	0.572	0.681	0.638	0.54	0.679	0.639	0.634	0.647	0.669	0.652	0.619	0.601	0.536
NCI-H1648	0.683	0.629	0.73	0.676	0.595	0.57	0.581	0.574	0.722	0.464		0.516	0.662	1.22	0.797	0.817	0.765	0.266	0.483
NCI-H1651	0.507	0.464	0.43	0.426	0.378	0.877	0.862	0.959	0.848	0.816	0.897	0.815	0.206	0.182	0.196	0.2	0.175	0.941	0.855
NCI-H1666	0.939	0.905	0.848	0.9	0.684	0.852	0.903	0.981	0.926	0.749	0.979	0.915	0.754	0.801	0.747	0.729	0.768	0.916	0.87
